These results are taken from US5891895A, “Hydroxypyridine derivatives their production and use” (Takeda Chemical Industries, Ltd., priority 1996, dated 1999).

Experiment [1] relates to rat aorta preparations. Kind of experiment: Vasorelaxant effect on rat aorta preparations: contractions induced by tetraethyl ammonium chloride (TEA) and barium chloride (BaCl2). It counts as cell-based, Male Wistar rats. Particulars: TEA (30-45 mM) and BaCl2 (0.3 mM), read-out: constriction inhibitory ratio. How it is done:
(§1) Vasorelaxant effect on rat aorta preparations
Effects on contractions induced by tetraethyl ammonium chloride (TEA) and barium chloride (BaCl2)
(§2) Method: Male Wistar rats (10 to 13 weeks old) were used. After exsanguination, the aorta was isolated. Aortic rings (5 mm long) were prepared and then suspended in a bath filled with oxygenated (95% O2 -5% CO2) Krebs solution (36° C.). One end of each ring preparation was fixed and the other end was connected to a tension transducer (Nihon Kohden), and tension of the ring preparation was measured. After an equilibration period of one hour, TEA (30-45 mM) and BaCl2 (0.3 mM) were added in the bath to produce vasoconstriction. After the contractions reached a steady state (after about 15 min.), each test compound was added and its relaxant effect was investigated.

Experiment [2] deals with rat aorta preparations. Kind of experiment: Vasorelaxant effect on rat aorta preparations: constriction induced by potassium chloride (KCl). It counts as cell-based, Male Wistar rats. The conditions noted are these: KCl (80 mM), read-out: constriction inhibitory ratio. How it is done:
as §2, §1
Effect on constriction induced by potassium chloride (KCl)
Method: This experiment was performed using KCl (80 mM) instead of TEA and BaCl2 used in Experimental Example 1. Apart from this, the procedures were substantially the same as in Experimental Example 1.

For another experiment, the system named is coronary blood flow. Kind of experiment: Coronary blood flow-increasing effect in anesthetized dogs (administration into the coronary artery). It counts as in vivo. The conditions noted are these: 30 μg/dog into the coronary artery, anesthetized beagle dogs. How it is done: Coronary blood flow-increasing effect in anesthetized dogs (administration into the coronary artery)
Method: After beagle dogs (10 to 12 kg) were anesthetized with pentobarbital, the chest was opened under artificial respiration. A bypass fitted with an electromagnetic flowmeter (Nihon Kohden) was prepared between the left coronary artery and the left carotid artery, and the coronary blood flow was measured. Each test compound was dissolved in 50% polyethylene glycol in physiological saline, 50% DMF in physiological saline or DMF for administration (30 μg/dog) into the coronary artery through the bypass.
Results: The greatest percentage change (% of basal flow) and duration (expressed as half-time (T1/2) in which the effect is reduced to half) are shown in Table 14.

In experiment [3] the test system is normotensive rats (Wistar-Kyoto rats (WKY)). Kind of experiment: Antihypertensive effect in rats (WKY). It counts as in vivo. Particulars: 0.3 mg/kg orally. How it is done:
(§3) Antihypertensive effect in rats
(§4) Method: 23 to 27-week-old spontaneously hypertensive rats (SHR) or normotensive rats (Wistar-Kyoto rats (WKY)) were anesthetized with pentobarbital (60 mg/kg, i.p.). A polyethylene catheter filled with physiological saline containing 20% heparin was inserted into the left femoral artery and left in place. The other end of the catheter was tunneled subcutaneously to the back and fixed there. After one night, the animals were used in the experiment in the fasting state. Blood pressure was recorded on an ink-writing recorder through the arterial catheter via a pressure transducer. Blood pressure was estimated from flood pressure waves recorded on the recorder. After the blood pressure was stabilized, the test compounds (vehicle (0.5% methylcellulose, […]) or Compound 16 (0.3 mg/kg)) were administered orally.
(§5) Results: The changes in blood pressure and heart rate after administration of the test compounds are given as % of pretreatment basal values (percentage changes) in FIGS. 1 and 2. All values are presented as means±standard error.

Experiment [4] has as its system spontaneously hypertensive rats (SHR). In words: Antihypertensive effect in rats (SHR). It counts as in vivo. Particulars: 0.3 mg/kg orally. As to the method:
as §3, §4, §5

Consider `CC(C)(C)O/N=C(/c1cccc(Br)c1)c1ncccc1O` [Compound 1, (Z)-2-(3-bromo-α-t-butoxyiminobenzyl)-3-hydroxypyridine], for which, in the experiment on rat aorta preparations [1], the inhibition at 0.1 µM was found to be 57% and the inhibition at 0.3 µM was 59%. Besides, in the experiment with rat aorta preparations [2], the inhibition at 0.1 µM was found to be 0% and the inhibition at 0.3 µM was 0%. In the experiment with coronary blood flow, the “duration (T1/2), half-time in which the effect is reduced to half” value was 6.7 min and the greatest percentage change is 133 % of basal flow.

With `CC(C)(C)O/N=C(/c1cccc(Br)c1)c1c(O)ccc[n+]1[O-]` [Compound 3, (Z)-2-(3-bromo-α-t-butoxyiminobenzyl)-3-hydroxypyridine 1-oxide], in the experiment on rat aorta preparations [1], the inhibition at 0.3 µM came out at 47% and the inhibition at 1 µM stood at 97%. Moreover, in the experiment on rat aorta preparations [2], the inhibition at 0.3 µM is 0% and the inhibition at 1 µM stood at 2%. Also, in the experiment on coronary blood flow, the “duration (T1/2), half-time in which the effect is reduced to half” value is given as 24.4 min and the greatest percentage change is listed as 155 % of basal flow.

On to `CC(C)(C)O/N=C(/c1ccc(Cl)cc1)c1c(O)ccc[n+]1[O-]` [Compound 7, (Z)-2-[α-(t-butoxyimino)-4-chlorobenzyl]-3-hydroxypyridine N-oxide], for which, in the experiment with rat aorta preparations [1], the inhibition at 0.3 µM stood at 2% and the inhibition at 1 µM stood at 72%. Moreover, the inhibition at 1 µM in the experiment on rat aorta preparations [2] was determined as 0%. Also, in the experiment with coronary blood flow, the “duration (T1/2), half-time in which the effect is reduced to half” value came to 18.6 min and the greatest percentage change was 71 % of basal flow.

For `CC(C)(C)O/N=C(/c1ccc(Cl)c(Cl)c1)c1c(O)ccc[n+]1[O-]` [Compound 11, (Z)-2-[α-(t-butoxyimino)-3,4-dichlorobenzyl]-3-hydroxypyridine N-oxide], in the experiment on rat aorta preparations [1], the inhibition at 0.3 µM is 49% and the inhibition at 1 µM came out at 63%. Further, the inhibition at 1 µM with rat aorta preparations [2] came to 0%. For the same compound, in the experiment with coronary blood flow, the “duration (T1/2), half-time in which the effect is reduced to half” value stood at 30.5 min and the greatest percentage change is 66 % of basal flow.

As to `CC(C)(C)O/N=C(/c1cc(Cl)cc(Cl)c1)c1ncccc1O` [Compound 13, (Z)-2-[α-(t-butoxyimino)-3,5-dichlorobenzyl]-3-hydroxypyridine], in the experiment on rat aorta preparations [1], the inhibition at 0.3 µM stood at 21% and the inhibition at 1 µM came to 53%. Further, the inhibition at 1 µM with rat aorta preparations [2] came out at 4%.

Turning to `CC(C)(C)O/N=C(/c1ccc(F)c(Br)c1)c1ncccc1O` [Compound 16, (Z)-2-(3-bromo-α-t-butoxyimino-4-fluorobenzyl)-3-hydroxypyridine], the inhibition at 0.1 µM in the experiment on rat aorta preparations [1] amounted to 87%. For the same compound, the inhibition at 0.1 µM with rat aorta preparations [2] was found to be 4%. Moreover, in experiment [3], the “effect on blood pressure” value is on record as “no effect” and the “effect on heart rate” value is reported as “no effect”. In addition, in the experiment with coronary blood flow, the “duration (T1/2), half-time in which the effect is reduced to half” value worked out at 43.5 min and the greatest percentage change is given as 136 % of basal flow. For the same compound, in experiment [4], the “duration of antihypertensive effect” value is reported as “long duration”, the “effect on heart rate” value is recorded as “little effect” and the “onset of antihypertensive effect after administration” value turned out to be 2 h. The “greatest change in blood pressure (antihypertensive effect)” value in experiment [4] (% of pretreatment basal values) was determined as 18%.

On to `CC(C)(C)O/N=C(/c1cccc(C(F)(F)F)c1)c1ncccc1O` [Compound 21, (Z)-2-[α-(t-butoxyimino)-3-trifluoromethylbenzyl]-3-hydroxypyridine], for which, in the experiment on rat aorta preparations [1], the inhibition at 0.3 µM stood at 45% and the inhibition at 1 µM was 100%. Also, in the experiment on rat aorta preparations [2], the inhibition at 0.3 µM was found to be 1% and the inhibition at 1 µM is 8%.

Turning to `CC(C)(C)O/N=C(/c1cccc([N+](=O)[O-])c1)c1ncccc1O` [Compound 23, (Z)-2-[α-(t-butoxyimino)-3-nitrobenzyl]-3-hydroxypyridine], in the experiment with rat aorta preparations [1], the inhibition at 0.1 µM amounted to 4%, the inhibition at 0.3 µM is 56% and the inhibition at 1 µM was 76%. Moreover, in the experiment with rat aorta preparations [2], the inhibition at 0.3 µM stood at 0% and the inhibition at 1 µM was determined as 0%. Further, in the experiment on coronary blood flow, the “duration (T1/2), half-time in which the effect is reduced to half” value was determined as 5.3 min and the greatest percentage change is listed as 134 % of basal flow.

For `CC(C)(C)N/N=C(\c1cccc(Br)c1)c1ncccc1O` [Compound 27, (E)-2-(3-bromo-α-t-butylhydrazinobenzyl)-3-hydroxypyridine], in the experiment with rat aorta preparations [1], the inhibition at 0.1 µM came out at 25% and the inhibition at 0.3 µM stood at 100%. Also, in the experiment on rat aorta preparations [2], the inhibition at 0.1 µM came out at 0% and the inhibition at 0.3 µM is 0%. For the same compound, in the experiment on coronary blood flow, the “duration (T1/2), half-time in which the effect is reduced to half” value stood at 74.6 min and the greatest percentage change is on record as 77 % of basal flow.
